Where two headings read alike, the source gives them in different places.
Legend:
B16-F10 cells = assay: Inhibition of cell surface sialylation, lectin staining and flow cytometry, B16-F10 cells; assay type: cell-based, Mouse; details: Mus musculus, 72 h, three days
Procedure: (§1) Mouse B16-F10 melanoma cells (ATCC CRL-6475) were cultured in Minimum Essential Medium (MEM) (Gibco, Invitrogen, Carlsbad, Calif.) containing 5% fetal bovine serum (FBS) (Greiner Bio-one, Frickenhausen, Germany), 1% MEM non-essential amino acids (Gibco), 0.15% sodium bicarbonate (Gibco), 1 mM sodium pyruvate (Gibco), 1.5% MEM vitamins (Gibco), 1% antibiotic-antimycotic solution (50 U/ml penicillin, 50 μg/ml streptomycin and 125 ng/ml amphotericin B) (Gibco). The murine 9464D neuroblastoma cell line was cultured in Dulbecco's Modified Eagle's Medium (DMEM, Glutamax, Gibco) with 10% FBS, 1% non-essential amino acids, 50 μM 2-mercaptoethanol (Sigma-Aldrich) and 1% antibiotic-antimycotic solution (Kroesen et al., 2014, DOI: 10.1002/ijc.28463, Stauffer et al., 2012, DOI: 10.3109/07357907.2012.664670). The murine EL4 T lymphocyte cell line (ATCC TIB-39) was cultured in Iscove's Modified Dulbecco's Medium (IMDM, Gibco) supplemented with 5% FBS and 1% antibiotic-antimycotic solution. Human HEK293 (ATCC CRL-1573) kidney cells and human HeLa (ATCC CCL-2) cervical cancer cells were cultured in DMEM containing 10% FBS, 2 mM glutamine (Lonza, Walkersville, Md.) and 1% antibiotic-antimycotic solution. Human monocytic THP-1 cells (TIB-202, ATCC) were cultured in RRMI-1640 medium (Gibco) supplemented with 10% FBS, 2 mM glutamine and 1% antibiotic-antimycotic solution. All cell lines were cultured in a humidified 5% CO2 incubator at 37° C.
(§2) To assess the effect of the synthesized compounds on cell surface sialylation, different murine and human cell lines were cultured for three days in the presence of 0-204.8 μM amide and carbamate fluorine sialic acids. Cells treated with an equal final percentage of DMSO were used as control and all cells were subjected to lectin staining and flow cytometry as described below. To investigate the longevity of the effect of the fluorine sialic acids on cell surface sialylation, B16-F10 cells treated with 25.6 μM or 51.2 μM were thoroughly washed with medium to remove fluorine sialic acids from the culture and reseeded. During a period of six days, cells were harvested every day and sialylation was assessed by flow cytometry.
(§3) For the lectin staining, all cells were harvested and washed with 1× carbo-free blocking solution (Vector Laboratories, Inc., Burlingame, Calif., USA) and stained for 45 minutes at 4° C. in 1× carbo-free blocking solution containing 1 mM CaCl2), 1 mM MgCl2 and biotinylated MALII (5 μg/ml), SNA-1 (1 μg/ml) or PNA (5 μg/ml) all obtained from Vector Laboratories Inc. MALII recognizes α2,3-linked sialic acids, SNA-1 recognizes α2,6-linked sialic acids and PNA binds to terminal 3-galactose. In addition, B16-F10 cells were stained with 2 μg/ml biotinylated AAL (α-linked Fucose), LCA (α-linked Mannose), PHA-L (complex glycans), GSL-I (α-linked Galactose and N-Acetylgalactosamine), WGA (chitobiose), SJA (β-linked Galactose and N-Acetylgalactosamine) and PSA (Glucose and Mannose) purchased from Vector Laboratories Inc. Next, the cells were washed thrice in PBA (1×PBS, 1% BSA, and 0.02% sodium azide) and stained for 10 minutes at 4° C. with 2 μg/ml streptavidin-phycoerythrin (PE) (BD Pharmingen, Franklin Lakes, N.J., USA). The cells were washed thrice again with PBA and fluorescence was assessed using a CyAn ADP flow cytometer (BD Biosciences, San Jose, Calif.) followed by analysis with FlowJo software (Tree Star Inc., Ashland, Oreg.). Untreated cells stained with streptavidin-PE only served as background fluorescence control. The percentages lectin binding was calculated by normalizing the mean fluorescence intensity values from the treated cells with the DMSO controls.
(§4) IC50 values and statistics were calculated using Prism 5.03 (GraphPad Software, Inc., La Jolla, Calif.). Statistical significance between the different groups was calculated using one-way ANOVA followed by Bonferroni post-hoc testing and P-values<0.05 were considered significant (p<0.05 *, p<0.01 **, p<0.001 ***). […]

HeLa cells = assay: Inhibition of cell surface sialylation, lectin staining and flow cytometry, HeLa cells; assay type: cell-based, human; details: Homo sapiens, 72 h, three days
Procedure: as §1, §2, §3, §4

THP-1 cells = assay: Inhibition of cell surface sialylation, lectin staining and flow cytometry, THP-1 cells; assay type: cell-based, Human; details: Homo sapiens, 72 h, three days
Procedure: as §1, §2, §3, §4

HEK293 cells = assay: Inhibition of cell surface sialylation, lectin staining and flow cytometry, HEK293 cells; assay type: cell-based, Human; details: Homo sapiens, 72 h, three days
Procedure: as §1, §2, §3, §4

9464D cells = assay: Inhibition of cell surface sialylation, lectin staining and flow cytometry, 9464D cells; assay type: cell-based, murine; details: Mus musculus, 72 h, three days
Procedure: as §1, §2, §3, §4

EL4 cells = assay: Inhibition of cell surface sialylation, lectin staining and flow cytometry, EL4 cells; assay type: cell-based, murine; details: Mus musculus, 72 h, three days
Procedure: as §1, §2, §3, §4

[1] = MALII lectin binding, read-out: α2,3-Sia IC50
[2] = SNA-I lectin binding, read-out: α2,6-Sia IC50

SMILES	IC50 (B16-F10 cells; [1])	IC50 (B16-F10 cells; [2])	IC50 (HeLa cells; [1])	IC50 (HeLa cells; [2])	IC50 (THP-1 cells; [1])	IC50 (THP-1 cells; [2])	IC50 (HEK293 cells; [1])	IC50 (HEK293 cells; [2])	IC50 (9464D cells; [1])	IC50 (9464D cells; [2])	IC50 (EL4 cells; [1])	IC50 (EL4 cells; [2])
C=CCOC(=O)N[C@@H]1C(OC(C)=O)C(F)C(OC(C)=O)(C(=O)OC)OC1[C@H](OC(C)=O)[C@@H](COC(C)=O)OC(C)=O (stereo partly drawn) [SiaFAII, 5-(alloxycarbamado)-2,4,7,8,9-penta-O-acetyl-3,5-dideoxy-3-fluoro-D-glycero-β-galacto-non-2-ulopyranosonate]	1.39 ± 0.21 µM	2.87 ± 0.8 µM	1.77 ± 1.78 µM	2.04 ± 1.4 µM	0.41 ± 0.73 µM	0.38 µM	1.83 ± 1.19 µM	1.68 ± 3.2 µM	6.91 ± 3.56 µM	9.64 ± 3.93 µM	39.9 ± 4.95 µM	50.9 ± 6.44 µM
COC(=O)C1(OC(C)=O)OC([C@H](OC(C)=O)[C@@H](COC(C)=O)OC(C)=O)[C@H](NC(=O)CCl)C(OC(C)=O)C1F (stereo partly drawn) [SiaFAcC, Methyl 5-(chloroacetamido)-2,4,7,8,9-penta-O-acetyl-3,5-dideoxy-3-fluoro-D-glycero-β-galacto-non-2-ulopyranosonate, reference compound]	18 ± 2.12 µM											
COC(=O)C1(OC(C)=O)OC([C@H](OC(C)=O)[C@@H](COC(C)=O)OC(C)=O)[C@H](NC(=O)CN=[N+]=[N-])C(OC(C)=O)C1F (stereo partly drawn) [SiaFAz, Methyl 5-(azidoacetamido)-2,4,7,8,9-penta-O-acetyl-3,5-dideoxy-3-fluoro-D-glycero-β-galacto-non-2-ulopyranosonate, reference compound]	19.9 ± 2.08 µM	32.8 ± 3.55 µM	80.6 ± 3.26 µM	42.2 ± 8.42 µM	10.9 ± 1.98 µM	13.2 ± 3.02 µM	45.6 ± 5.14 µM	47.2 ± 2.89 µM	> 102 µM	> 102 µM	> 102 µM	> 102 µM
COC(=O)C1(OC(C)=O)OC([C@H](OC(C)=O)[C@@H](COC(C)=O)OC(C)=O)[C@H](NC(=O)OC(C)(C)C)C(OC(C)=O)C1F (stereo partly drawn) [SiaFBoc, Methyl 5-(tert-butoxycarbamado)-2,4,7,8,9-penta-O-acetyl-3,5-dideoxy-3-fluoro-D-glycero-β-galacto-non-2-ulopyranosonate]	3.48 ± 0.56 µM	8.21 ± 0.67 µM	12.8 ± 1.61 µM	20.6 ± 1.95 µM	1.28 ± 1.36 µM	1.72 ± 2.3 µM	10.4 ± 4.76 µM	28 ± 2.57 µM	36.5 ± 3.81 µM	> 102 µM	54.6 ± 3.22 µM	50.3 ± 3.99 µM
COC(=O)C1(OC(C)=O)OC([C@H](OC(C)=O)[C@@H](COC(C)=O)OC(C)=O)[C@H](NC(=O)OCc2ccccc2)C(OC(C)=O)C1F (stereo partly drawn) [SiaFCbz, Methyl 5-(benzylcarbamado)-2,4,7,8,9-penta-O-acetyl-3,5-dideoxy-3-fluoro-D-glycero-β-galacto-non-2-ulopyranosonate, reference compound]	14.5 ± 3.51 µM											
COC(=O)C1(OC(C)=O)OC([C@H](OC(C)=O)[C@@H](COC(C)=O)OC(C)=O)[C@H](NC(=O)COC(C)=O)C(OC(C)=O)C1F (stereo partly drawn) [SiaFGc, Methyl 5-(acetoxyamido)-2,4,7,8,9-penta-O-acetyl-3,5-dideoxy-3-fluoro-D-glycero-β-galacto-non-2-ulopyranosonate]	4.98 ± 0.33 µM	11.8 ± 2.27 µM	16.6 ± 3.91 µM	12.5 ± 2.52 µM	4.24 ± 2 µM	5.94 ± 2.18 µM	53.6 ± 5.25 µM	54.1 ± 15.3 µM	> 102 µM	> 102 µM	> 102 µM	> 102 µM
COC(=O)N[C@@H]1C(OC(C)=O)C(F)C(OC(C)=O)(C(=O)OC)OC1[C@H](OC(C)=O)[C@@H](COC(C)=O)OC(C)=O (stereo partly drawn) [SiaFMe, Methyl 5-(methylcarbamado)-2,4,7,8,9-penta-O-acetyl-3,5-dideoxy-3-fluoro-D-glycero-β-galacto-non-2-ulopyranosonate]	4.89 ± 0.25 µM	7.54 ± 1.34 µM	6.33 ± 3.26 µM	5.23 ± 1.88 µM	1.98 ± 0.91 µM	2.65 ± 1.6 µM	3.31 ± 1.24 µM	4.77 ± 2.8 µM	18.3 ± 2.67 µM	29.6 ± 4.67 µM	59.2 ± 4.17 µM	52.7 ± 5.45 µM
COCCOC(=O)N[C@@H]1C(OC(C)=O)C(F)C(OC(C)=O)(C(=O)OC)OC1[C@H](OC(C)=O)[C@@H](COC(C)=O)OC(C)=O (stereo partly drawn) [SiaFMox, Methyl 5-(2-methoxy-ethylcarbamado)-2,4,7,8,9-penta-O-acetyl-3,5-dideoxy-3-fluoro-D-glycero-R-galacto-non-2-ulopyranosonate]	25.5 ± 2.53 µM	32.4 ± 1.38 µM										
C#CCCC(=O)N[C@@H]1C(OC(C)=O)C(F)C(OC(C)=O)(C(=O)OC)OC1[C@H](OC(C)=O)[C@@H](COC(C)=O)OC(C)=O (stereo partly drawn) [SiaFPen, Methyl 5-(4-pentynacetamido)-2,4,7,8,9-penta-O-acetyl-3,5-dideoxy-3-fluoro-D-glycero-β-galacto-non-2-ulopyranosonate, reference compound]	40.6 ± 5.67 µM	52.5 ± 4.31 µM	62.3 ± 3.91 µM	51.2 ± 6.06 µM	10.4 ± 2.14 µM	12.6 ± 3.51 µM	26.2 ± 2.37 µM	44.7 ± 4.33 µM	> 102 µM	> 102 µM	> 102 µM	> 102 µM
CCCCOC(=O)N[C@@H]1C(OC(C)=O)C(F)C(OC(C)=O)(C(=O)OC)OC1[C@H](OC(C)=O)[C@@H](COC(C)=O)OC(C)=O (stereo partly drawn) [SiaFnBu, Methyl 5-(butylcarbamado)-2,4,7,8,9-penta-O-acetyl-3,5-dideoxy-3-fluoro-D-glycero-β-galacto-non-2-ulopyranosonate]	7.45 ± 0.92 µM	7.91 ± 1.95 µM										

From patent US11639364B2, “Potent sialyltransferase inhibitors” (STICHTING RADBOUD UNIVERSITEIT, priority 2018, dated 2023)
